Reference: the supplement of paper PMC10307832

Columns and labels:
Test in all cases: relative viability (nuclei count vs DMSO), 5 days (fraction); higher = more cells survive
Crenolanib + OSI-027 = compound: CC1(COc2ccc3c(c2)ncn3-c2ccc3cccc(N4CCC(N)CC4)c3n2)COC1 [Crenolanib] + COc1cccc2cc(-c3nc([C@H]4CC[C@H](C(=O)O)CC4)n4ncnc(N)c34)[nH]c12 [OSI-027] (partner 0.5 µM)
Outline: (§1)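 Relative viability equals treated-well nuclei counts divided by vehicle-well nuclei counts. Counts came from 4× images of lung cancer cell lines grown in 1536-well plates for 5 days after pin-tool dosing on the day after seeding. Dosing used one drug alone or a fixed anchor-drug dose plus five library-drug doses (not always all listed) in √10 steps, and values are medians of duplicate plates.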

Crenolanib + Phenformin = compound: CC1(COc2ccc3c(c2)ncn3-c2ccc3cccc(N4CCC(N)CC4)c3n2)COC1 [Crenolanib] + N=C(N)NC(=N)NCCc1ccccc1 [Phenformin] (partner 250 µM)
Outline: as §1

Crenolanib + Olaparib = compound: CC1(COc2ccc3c(c2)ncn3-c2ccc3cccc(N4CCC(N)CC4)c3n2)COC1 [Crenolanib] + O=C(c1cc(Cc2n[nH]c(=O)c3ccccc23)ccc1F)N1CCN(C(=O)C2CC2)CC1 [Olaparib] (partner 8 µM)
Outline: as §1

Tivantinib + Luminespib = compound: O=C1NC(=O)[C@@H](c2cn3c4c(cccc24)CCC3)[C@@H]1c1c[nH]c2ccccc12 [Tivantinib] + CCNC(=O)c1noc(-c2cc(C(C)C)c(O)cc2O)c1-c1ccc(CN2CCOCC2)cc1 [Luminespib] (partner 0.01 µM)
Outline: as §1

## UMC-11
Crenolanib + OSI-027; first compound 0.01 µM
  relative viability: 0.523
Crenolanib + OSI-027; first compound 0.03162 µM
  relative viability: 0.535
Crenolanib + OSI-027; first compound 0.1 µM
  relative viability: 0.538
Crenolanib + OSI-027; first compound 0.3162 µM
  relative viability: 0.546
Crenolanib + OSI-027; first compound 1 µM
  relative viability: 0.514
Crenolanib + Phenformin; first compound 0.01 µM
  relative viability: 0.346
Crenolanib + Phenformin; first compound 0.03162 µM
  relative viability: 0.323
Crenolanib + Phenformin; first compound 0.1 µM
  relative viability: 0.325
Crenolanib + Phenformin; first compound 0.3162 µM
  relative viability: 0.329
Crenolanib + Phenformin; first compound 1 µM
  relative viability: 0.269
Crenolanib + Olaparib; first compound 0.01 µM
  relative viability: 0.394
Crenolanib + Olaparib; first compound 0.03162 µM
  relative viability: 0.35
Crenolanib + Olaparib; first compound 0.1 µM
  relative viability: 0.379
Crenolanib + Olaparib; first compound 0.3162 µM
  relative viability: 0.556
Crenolanib + Olaparib; first compound 1 µM
  relative viability: 0.341
Tivantinib + Luminespib; first compound 0.01 µM
  relative viability: 0.927
Tivantinib + Luminespib; first compound 0.03162 µM
  relative viability: 1.02
Tivantinib + Luminespib; first compound 0.1 µM
  relative viability: 0.928
Tivantinib + Luminespib; first compound 0.3162 µM
  relative viability: 1.13
